From ChEMBL document CHEMBL1131074, “Conformational analysis of ketolide, conformations of RU 004 in solution and bound to bacterial ribosomes” (J Med Chem, 1998)

Columns and labels:
Assay type in all cases: functional, organism-based
[1] = system: Escherichia coli; assay: Pka1 value was evaluated in Escherichia coli MRE600 strain 70S ribosome (Observation 1)
[2] = system: Escherichia coli; assay: Pka1 value was evaluated in Escherichia coli MRE600 strain 70S ribosome (Observation 2)
[3] = system: Escherichia coli; assay: Pka2 value was evaluated in Escherichia coli MRE600 strain 70S ribosome (Observation 1)
[4] = system: Escherichia coli; assay: Pka2 value was evaluated in Escherichia coli MRE600 strain 70S ribosome (Observation 2)

CC[C@H]1OC(=O)C(C)C(=O)[C@H](C)[C@@H](O[C@@H]2O[C@H](C)C[C@H](N(C)C)[C@H]2O)[C@@](C)(OC)C[C@@H](C)C(=O)[C@H](C)[C@H]2N(NCCCc3ccnc4ccccc34)C(=O)O[C@]12C (some centres undefined) gave a pKa1 [1] of 5, a pKa1 [2] of 3 and a pKa2 [3] of 8. For the same molecule, the pKa2 [4] was 6.
